Data published in article PMC5557681 (Journal of veterinary cardiology : the official journal of …, 2017).
Where a name gives a salt, the structure may show the parent alone. Read-outs that look alike come from different tables or passages of the source. Values belong to the molecule of their own block, whether it stands above or below them.

Assays:
[1] = Analyte stability during storage in citrate or EDTA treated feline plasma; type: physicochemical; settings: for Time stable at room temperature: EDTA treated feline plasma; for Deviation from nominal concentration (%): EDTA treated plasma, spike CAM-D 100, clopidogrel 38.3, acid 500 ng/mL; for Time stable at −80°C: citrate treated feline plasma; for Time stable at room temperature (abstract) / Time stable at −80°C (abstract): feline plasma
[2] = in vivo, po
[3] = in vivo; settings: po, 18.75 mg
[4] = cited from earlier work
[5] = humans; cited from earlier work
[6] = system: feline cardiogenic thromboembolism; settings: cats; cited from earlier work
[7] = system: ADP-induced platelet aggregation; settings: cited from earlier work

Time stable at room temperature [1]: at least 1 week
Deviation from nominal concentration (%) ([1]; 4°C, 6 h): −6%
Deviation from nominal concentration (%) ([1]; RT, 1 wk): −1%
Deviation from nominal concentration (%) ([1]; RT, 24 h): −2%
Deviation from nominal concentration (%) ([1]; RT, 48 h): −10%
Deviation from nominal concentration (%) ([1]; RT, 72 h): 1%
Time stable at −80°C [1]: at least 9 months
Time stable at room temperature (abstract) [1]: 1 week
Time stable at −80°C (abstract) [1]: 9 months
AUC that was extrapolated [2]: 15–20%
Cmax and AUC values compared with clopidogrel and CAM-D ([2]; 18.75 mg): over 100 fold
Cmax values (range of both cats) ([2]; 18.75 mg): 2,900–3,300 ng/mL
Elimination half-life compared with clopidogrel and CAM-D ([2]; 18.75 mg): about 2 times
Time post administration at which Cmax was reached (both cats) ([2]; 18.75 mg): 1.5 to 2 h
Structure (SMILES): O=C(O)[C@H](c1ccccc1Cl)N1CCc2sccc2C1 [Clopidogrel carboxylic acid, clopidogrel carboxylic acid]

Time stable at room temperature [1]: at least 1 week
Deviation from nominal concentration (%) ([1]; 4°C, 6 h): −7%
Deviation from nominal concentration (%) ([1]; RT, 1 wk): 6%
Deviation from nominal concentration (%) ([1]; RT, 24 h): −2%
Deviation from nominal concentration (%) ([1]; RT, 48 h): −5%
Deviation from nominal concentration (%) ([1]; RT, 72 h): −1%
Time stable at −80°C [1]: at least 9 months
Time stable at room temperature (abstract) [1]: 1 week
Time stable at −80°C (abstract) [1]: 9 months
AUC that was extrapolated ([2]; cat): < 2%
AUClast (0 to 24hrs) ([2]; 18.75 mg): 225 ng·h/mL
Cmax ([2]; 18.75 mg): 144 ng/mL
t1/2 (elimination half-life) ([2]; 18.75 mg): 5.2 h
AUC(0-t) ([3]; AUClast (0 to 24hrs)): 374 ng·h/mL
Cmax ([3]; Cmax): 134 ng/mL
half-life ([3]; t1/2 (elimination half-life)): 5.4 h
Structure (SMILES): COC(=O)[C@H](c1ccccc1Cl)N1CCc2sccc2C1 [Clopidogrel, S-(+)-clopidogrel hydrogen sulfate, reference compound]
Cmax in humans ([4]; healthy humans / people): 20 ng/mL
Tmax in people ([4]; post administration): around 1 hour
Proportion metabolized in the liver to inactive clopidogrel carboxylic acid [5]: 85%
Prevention of feline cardiogenic thromboembolism [6]: superior to aspirin

Structure (SMILES): COC(=O)C(c1ccccc1Cl)N1CCC2SC(=O)C=C2C1.Cl (stereo not shown) [2-oxo-clopidogrel, 2-oxo-clopidogrel hydrochloride]
Stability in feline plasma (in words) ([1]; all storage temperatures tested, EDTA and citrate treated plasma): unstable
Decrease from nominal concentration within 6 hours ([1]; all storage temperatures tested, EDTA treated and citrate treated plasma, data not shown): > 25%

Structure (SMILES): COC(=O)C(c1ccccc1Cl)N1CCC(S)C(=CC(=O)O)C1 (stereo not shown) [H4]
Antiplatelet activity relative to H2 [7]: about twice the activity of H2
